Laboratory results taken from PubChem BioAssay (NCI).
Several values for one entry are separate records, joined by “and”; a condition that tells them apart may be missing. Equal entries are not always repeated.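 48-hour exposure; five concentrations; linearly interpolated endpoints. The concentration for 50% growth inhibition is given as GI50. TGI denotes the concentration required for complete inhibition of growth.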 Where a SMILES comes first, the peptide text is derived from it. The star is where a group is joined. Cbz = O=C(OCc1ccccc1)*; Boc = CC(C)(C)OC(=O)*; OSu = O=C1CCC(=O)N1O*; Bn = c1ccc(C*)cc1

Assays:
Test in all cases: DTP human tumour cell line panel, 48 h
[1] = test system: OVCAR-3 ovarian
[2] = test system: HOP-62 NSCLC
[3] = test system: U251 CNS
[4] = test system: MDA-MB-435
[5] = test system: KM12 colon
[6] = test system: BT-549 breast
[7] = test system: SNB-75 CNS
[8] = test system: NCI/ADR-RES ovarian
[9] = test system: UACC-257 melanoma
[10] = test system: NCI-H460 lung

Structure (SMILES) | GI50 [1] | TGI [1] | TGI [2] | TGI [3] | GI50 [4] | TGI [4] | GI50 [5] | TGI [5] | TGI [6] | TGI [7] | GI50 [8] | TGI [8] | TGI [9] | TGI [10]
CC[C@@]1(O)C(=O)OCc2c1cc1n(c2=O)Cc2c-1nc1ccccc1c2C=Nc1ccccc1N[C@@H]1c2cc3c(cc2[C@@H](c2cc(OC)c(O)c(OC)c2)[C@H]2C(=O)OC[C@@H]21)OCO3 | 1.46 µM and 0.337 µM | 10.9 µM and 1.81 µM | 0.466 µM and 0.154 µM | 34.6 µM | 0.358 µM and 0.45 µM | 24.3 µM and > 50 µM | 4.99 µM and 1.74 µM | > 41.6 µM and 8.08 µM | > 50 µM | 5.48 µM and 0.647 µM | 0.0689 µM and 0.24 µM | 2.88 µM and 2.78 µM | 66.7 µM and 11.3 µM | –
Cc1nc(Cc2n[nH]c(C)n2)n[nH]1 | – | > 100 µM | > 100 µM | > 100 µM | – | > 100 µM | – | > 100 µM | > 100 µM | > 100 µM | – | > 100 µM | > 100 µM | –
CN(/N=C\c1ccc2ccccc2c1)C1=NCCCN1 | – | 54.1 µM | 27.4 µM | 96.6 µM | – | 30.8 µM | – | 32.1 µM | – | 91.2 µM | – | 74.4 µM | 23.6 µM | 20.3 µM
Clc1ccc(C2=NCON=C2c2ccc(Cl)cc2)cc1 | – | 46.6 µM | > 100 µM | 40.1 µM | – | – | – | 39.6 µM | 41.7 µM | 74.2 µM | – | 71.2 µM | 61.4 µM | 40.6 µM
O=C(O)/C=C/c1ccncc1 | – | > 100 µM | 0.746 µM | 14 µM | – | – | – | > 100 µM | – | > 100 µM | – | – | > 100 µM | > 100 µM
CCC(=C/[C@H](C)C/C=C/C(C)=C/[C@@H](C)C(=O)[C@@H](C)[C@H](O)[C@@H](C)CC)/C=C/[C@H]1CC=CC(=O)O1 | – | – | 2.05 µM and 13 µM | 1.4 µM and 11.6 µM | – | 0.166 µM | – | – | 1.37 µM | < 0.0012 µM | – | 1.65 µM and 0.39 µM | 2.22 µM and 18 µM | 1.26 µM and 1.64 µM
COc1cc2c(cc1OC)C(=O)N(c1ccc(OCCN3CCCC3)cc1)C2=O | – | > 100 µM | > 100 µM | > 100 µM | – | > 100 µM | – | > 100 µM | > 100 µM | – | – | > 100 µM | > 100 µM | > 100 µM
CCOC(=O)c1c(-c2ccccc2)c(C)cn1C | – | > 10 µM | – | > 10 µM | – | > 10 µM | – | > 10 µM | > 10 µM | > 10 µM | – | > 10 µM | > 10 µM | > 10 µM
Cc1ccccc1Nc1nc2ccccc2nc1NS(=O)(=O)c1ccccc1 | – | > 100 µM | > 100 µM | > 100 µM | – | > 100 µM | – | > 100 µM | – | > 100 µM | – | > 100 µM | > 100 µM | > 100 µM
CCOC(=O)c1csc(NC(=O)C(C)N2CCOCC2)n1 (configuration not stated) | – | > 100 µM | > 100 µM | > 100 µM | – | > 100 µM | – | > 100 µM | – | > 100 µM | – | > 100 µM | > 100 µM | > 100 µM
Cc1ccc(NCCN(C)C)c2c(=O)c3cc(O)ccc3sc12 | – | 18.6 µM | 6.21 µM | 8.49 µM | – | 2.94 µM | – | 11.4 µM | 20.3 µM | 9.24 µM | – | – | 20.7 µM | 5.72 µM
O=S(=O)(O)c1cc(O)c(N=Nc2ccc3ccccc3c2O)c2ccccc12 | – | > 100 µM | > 100 µM | > 100 µM | – | – | – | > 100 µM | > 100 µM | 79.1 µM | – | 46.7 µM | 66.7 µM | –
COc1cc2c(cc1OC)C(=O)/C(=C/c1ccc(N(C)C)cc1)CC2 | – | > 10 µM | > 10 µM | > 10 µM | – | > 10 µM | – | > 10 µM | > 10 µM | – | – | > 10 µM | > 10 µM | > 10 µM
CC(C)[C@@H]1NC(=O)[C@@H]2N=C(O[C@H]2C)[C@H](C(C)C)NC(=O)C2N=C1O[C@H]2C | – | > 100 µM | > 100 µM | – | – | > 100 µM | – | > 100 µM | – | > 100 µM | – | > 100 µM | > 100 µM | > 100 µM
CC(C)(C)OC(=O)NC(Cc1ccc(OCc2ccccc2)cc1)C(=O)NC(CCCCNC(=O)OCc1ccccc1)C(=O)NC(CCCCNC(=O)OCc1ccccc1)C(=O)ON1C(=O)CCC1=O (configuration not stated) (Boc-Tyr(Bn)-Lys(Cbz)-Lys(Cbz)-OSu; configuration not given here) | – | – | > 100 µM | 31.8 µM | – | > 100 µM | – | > 100 µM | 33.2 µM | > 100 µM | – | > 100 µM | > 100 µM | > 100 µM
Cn1c(=O)c2c(nc(N/N=C3/SCC(=O)N3Cc3ccccc3)n2C)n(C)c1=O | – | 90.4 µM | > 100 µM | > 100 µM | – | > 100 µM | – | > 100 µM | > 100 µM | – | – | > 100 µM | > 100 µM | > 100 µM
CC(C)=CCC/C(C)=C/C=C/C(C)=C/C1C[C@@]2(C(O)O1)[C@H](CCCO)/C(=C(/C)C=O)CC[C@]2(C)O (some centres not stated) | – | – | – | – | – | – | – | – | – | 69.9 µM | – | – | 56.5 µM | 25.5 µM
Cc1ccc(-n2cc(-c3ccc(Cl)cc3)c3c(=N)n(N)cnc32)cc1 | – | 26.5 µM | 27.4 µM | 22.3 µM | – | 23.1 µM | – | – | 31.7 µM | 25.9 µM | – | 26.8 µM | 21.5 µM | 22.2 µM
Cc1ccc(NC(=O)C(=O)Cc2cccc[n+]2[O-])cc1C | – | > 100 µM | > 100 µM | > 100 µM | – | – | – | > 100 µM | – | > 100 µM | – | – | > 100 µM | > 100 µM
CC(C)=CC(=O)c1c(C(=O)O)nc2ccccc2[n+]1[O-] | – | – | > 100 µM | > 100 µM | – | – | – | > 100 µM | – | > 100 µM | – | – | > 100 µM | > 100 µM
CC1(Cl)CC(C)(/C=C/Cl)C(Cl)CC1Cl (configuration not stated) | – | 28 µM | 34.7 µM | 30.8 µM | – | – | – | 31.3 µM | – | 41.4 µM | – | – | – | 28.7 µM
C(=C\c1c2oc(-c3ccccc3)cc(-c3ccccc3)c-2c2ccccc12)/C=C1\c2ccccc2-c2c(-c3ccccc3)cc(-c3ccccc3)[o+]c21 | – | > 100 µM | > 100 µM | > 100 µM | – | – | – | – | – | > 100 µM | – | – | > 100 µM | > 100 µM
COc1cc(/C=C2/Oc3c(OC)cccc3C2=O)ccc1O | – | > 100 µM | > 100 µM | > 100 µM | – | > 100 µM | – | > 100 µM | > 100 µM | > 100 µM | – | – | > 100 µM | > 100 µM
Clc1cc2ncn(C3CCCCO3)c2cc1Cl (configuration not stated) | – | > 100 µM | > 100 µM | > 100 µM | – | > 100 µM | – | > 100 µM | 84.5 µM | 53.9 µM | – | > 100 µM | – | –
